From patent US6756390B2, “Organic acid salt of amlodipine” (CJ Corp., priority 2002, dated 2004)

How the values were obtained:
Assay type in all cases: physicochemical
[1] = Light stability, 4 weeks at 25° C. with exposure to daylight, HPLC
Source text: A measurement was made of the contents of the salts with resort to HPLC under the same conditions as in the chemical stability test.

[2] = Chemical stability in aqueous state, 25° C., 4 weeks in the dark, HPLC; conditions: distilled water
Experimental: The resulting aqueous solutions were stored at 25° C. for 4 weeks in the dark, after which a measurement was made of the contents of the salts with resort to HPLC under the same conditions as in the solid state.

[3] = Chemical stability in solid state, accelerated test at 60° C.
[4] = Solubility in various solvents at 37° C.; conditions: aqueous buffer, ionic strength 0.2, 37° C., based on the weight of amlodipine

| Compound | Content (HPLC), Stored 4 weeks, 25° C. daylight ([1]; 4 weeks, 25° C., daylight) [%] | Content (HPLC), Initial [1] [%] | Degraded impurity / content change in aqueous solution [2] | Content, storage period 1 week ([3]; 1 week) [%] | Content, storage period 2 weeks ([3]; 2 weeks) [%] | Content, storage period 4 weeks ([3]; 4 weeks) [%] | Content, storage period initial ([3]; initial) [%] | solubility ([4]; pH 3 buffer) [µg/mL] | solubility ([4]; pH 4 buffer) [µg/mL] | solubility ([4]; pH 6 buffer) [µg/mL] | solubility ([4]; pH 7 buffer) [µg/mL] | solubility ([4]; pH 8 buffer) [µg/mL] | Color change on light exposure ([1]; 4 weeks, 25° C., daylight) |
| --- | --- | --- | --- | --- | --- | --- | --- | --- | --- | --- | --- | --- | --- |
| CCOC(=O)C1=C(COCCN)NC(C)=C(C(=O)OC)C1c1ccccc1Cl.Cc1ccc(S(=O)(=O)O)cc1 (stereo not drawn) [Tosylate, Amlodipine Para-toluenesulfonate] | 72.0 | 99.2 | – | – | – | – | – | – | – | – | – | – | – |
| CCOC(=O)C1=C(COCCN)NC(C)=C(C(=O)OC)C1c1ccccc1Cl (stereo not drawn) [Besylate, Amlodipine Besylate] | 82.5 | 99.2 | neither degraded impurity nor content change was found | 99.6 | 99.4 | 99.2 | 99.6 | 3250 | 3150 | 3190 | 1590 | 1390 | turned yellow from white |
